Measured values reported in patent US8129399B2, “Aminopyrimidines useful as kinase inhibitors” (Vertex Pharmaceuticals Incorporated, priority 2005, dated 2012).
Like-named read-outs stand apart in the source and are kept apart here.

Key:
FLT-3 = biological target: T1, FLT-3 (Homo sapiens, UniProt P36888); test: FLT-3 inhibition assay, radiometric filter-binding; format: biochemical; details: 90 μM ATP
T1 sequence (P36888 27-993): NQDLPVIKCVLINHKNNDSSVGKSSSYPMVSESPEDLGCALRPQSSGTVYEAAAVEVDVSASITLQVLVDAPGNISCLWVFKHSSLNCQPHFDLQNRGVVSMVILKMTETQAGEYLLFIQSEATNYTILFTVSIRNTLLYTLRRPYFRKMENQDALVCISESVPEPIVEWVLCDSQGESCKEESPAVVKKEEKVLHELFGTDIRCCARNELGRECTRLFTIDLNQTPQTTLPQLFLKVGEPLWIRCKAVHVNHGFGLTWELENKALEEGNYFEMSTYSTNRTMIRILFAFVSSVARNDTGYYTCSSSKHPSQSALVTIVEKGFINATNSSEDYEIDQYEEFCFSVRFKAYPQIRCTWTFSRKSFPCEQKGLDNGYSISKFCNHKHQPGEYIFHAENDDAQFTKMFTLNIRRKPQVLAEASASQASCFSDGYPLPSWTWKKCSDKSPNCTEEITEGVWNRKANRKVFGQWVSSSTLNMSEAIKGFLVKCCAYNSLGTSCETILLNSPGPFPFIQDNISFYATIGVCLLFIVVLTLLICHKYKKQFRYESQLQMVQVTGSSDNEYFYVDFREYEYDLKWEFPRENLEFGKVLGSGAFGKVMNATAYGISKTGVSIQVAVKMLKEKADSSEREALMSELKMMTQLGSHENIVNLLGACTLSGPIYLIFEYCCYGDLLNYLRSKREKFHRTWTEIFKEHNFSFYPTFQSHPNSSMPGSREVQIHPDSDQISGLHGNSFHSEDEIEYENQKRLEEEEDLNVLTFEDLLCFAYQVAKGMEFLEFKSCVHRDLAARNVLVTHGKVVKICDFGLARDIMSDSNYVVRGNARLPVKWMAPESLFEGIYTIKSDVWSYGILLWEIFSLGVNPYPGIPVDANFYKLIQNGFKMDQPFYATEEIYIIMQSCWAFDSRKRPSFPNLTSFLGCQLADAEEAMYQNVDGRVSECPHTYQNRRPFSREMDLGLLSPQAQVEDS
Protocol: This assay monitors the ^33P incorporation into a substrate poly(Glu, Tyr) 4:1 (pE4Y). Reactions were carried out in a solution containing 100 mM HEPES (pH 7.5), 10 mM MgCl2, 25 mM NaCl, 1 mM DTT, 0.01% BSA and 2.5% DMSO. Final substrate concentrations in the assay were 90 μM ATP and 0.5 mg/ml pE4Y (both from Sigma Chemicals, St Louis, Mo.). The final concentration of a compound of the present invention was generally between 0.01 and 5 μM. Typically, a 12-point titration was conducted by preparing serial dilutions from 10 mM DMSO stock of test compound. Reactions were carried out at room temperature.
Two assay solutions were prepared. Solution 1 contains 100 mM HEPES (pH 7.5), 10 mM MgCl2, 25 mM NaCl, 1 mg/ml pE4Y and […] (containing 0.3 mCi of [γ-33^P]ATP for each reaction). Solution 2 contains 100 mM HEPES (pH 7.5), 10 mM MgCl2, 25 mM NaCl, 2 mM DTT, 0.02% BSA and 3 nM FLT-3. The assay was run on a 96 well plate by mixing 50 μl each of Solution 1 and […] of the compounds of the present invention. The reaction was initiated with Solution 2. […] All of the reaction volume was then transferred to a filter plate and washed with 5% TCA by a Harvester 9600 from TOMTEC (Hamden, Conn.). The amount of ^33P incorporation into pE4y was analyzed by a Packard Top Count Microplate Scintillation Counter (Meriden, Conn.). The data was fitted using Prism software to get an IC50 or Ki.

Aurora-2 (Aurora A) = biological target: T2, Aurora-2 (Aurora A) (Homo sapiens, UniProt O14965); test: Aurora-2 (Aurora A) inhibition assay, coupled enzyme; format: biochemical
T2 sequence (O14965 1-403): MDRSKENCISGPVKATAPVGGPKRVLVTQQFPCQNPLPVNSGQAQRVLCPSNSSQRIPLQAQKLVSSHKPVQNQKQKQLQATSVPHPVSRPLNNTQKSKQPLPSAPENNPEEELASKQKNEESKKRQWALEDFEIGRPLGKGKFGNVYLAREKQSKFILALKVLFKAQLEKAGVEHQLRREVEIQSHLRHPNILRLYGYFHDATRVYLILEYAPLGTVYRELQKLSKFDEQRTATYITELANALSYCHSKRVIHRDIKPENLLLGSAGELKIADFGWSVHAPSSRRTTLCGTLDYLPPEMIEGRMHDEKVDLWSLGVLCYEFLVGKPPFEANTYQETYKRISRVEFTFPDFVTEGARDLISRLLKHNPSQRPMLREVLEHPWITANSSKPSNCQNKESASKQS
Protocol: Assays were carried out in a mixture of 100 mM Hepes (pH7.5), 10 mM MgCl2, 1 mM DTT, 25 mM NaCl, 2.5 mM phosphoenolpyruvate, 300 μM NADH, 30 μg/ml pyruvate kinase and 10 μg/ml lactate dehydrogenase. […] Assays were carried out at 30° C. and in the presence of 40 nM Aurora-2.
An assay stock buffer solution was prepared containing all of the reagents listed above, with the exception of Aurora-2 and the test compound of interest. […] The plate was preincubated for 10 minutes at 30° C. and the reaction initiated by addition of 10 μl of Aurora-2. Initial reaction rates were determined with a Molecular Devices SpectraMax Plus plate reader over a 10 minute time course. IC50 and Ki data were calculated from non-linear regression analysis using the Prism software package (GraphPad Prism version 3.0cx for Macintosh, GraphPad Software, San Diego Calif., USA).

Colo205 cells = test: Colo205 cell proliferation, 3H thymidine incorporation; format: cell-based; details: Homo sapiens
Protocol: Colo205 cells were seeded in 96 well plates and serially diluted compound was added to the wells in duplicate. Control groups included untreated cells, the compound diluent (0.1% DMSO alone) and culture medium without cells.
To measure proliferation, 3 h prior to the end of the experiment 0.5 μCi of 3H thymidine was added to each well. Cells were then harvested and the incorporated radioactivity counted on a Wallac microplate beta-counter. Cell viability was assessed using Promega CellTiter 96AQ to measure MTS conversion. Dose response curves were calculated using either Prism 3.0 (GraphPad) or SoftMax Pro 4.3.1 LS (Molecular Devices) software.

[1] = 400 μM ATP, 40 nM Aurora-2, read-out: Aurora A Ki
[2] = COLO 205, read-out: Colo205 inh 3H-Thy incorporation after 72 hours IC50 (uM)
[3] = COLO 205, read-out: Colo205 inh 3H-Thy incorporation after 96 hours IC50 (uM)

| SMILES | Ki (FLT-3) [nM] | Ki (Aurora-2 (Aurora A); [1]) [nM] | IC50 (Colo205 cells; [2]) [µM] | IC50 (Colo205 cells; [3]) [µM] | Ki (Aurora-2 (Aurora A)) [nM] |
| --- | --- | --- | --- | --- | --- |
| CCC(=O)Nc1ccc(Sc2nc(Nc3cc(C)n[nH]3)cc(N3CC(O)(C4CC4)C3)n2)cc1 [Compound I-2] | 36 | 0.39 | 0.026 | 0.026 | – |
| CCC(=O)Nc1ccc(Sc2nc(Nc3cc(C)n[nH]3)cc(N3CC(O)(C4CCCC4)C3)n2)cc1 [Compound I-3] | 26 | 0.67 | 0.002 | 0.004 | – |
| CCC(=O)Nc1ccc(Sc2nc(Nc3cc(C)n[nH]3)cc(N3CC(O)(C(C)C)C3)n2)cc1 [Compound I-5] | 21 | 1.2 | – | 0.033 | – |
| CCC(=O)Nc1ccc(Sc2nc(Nc3cc(C)n[nH]3)cc(N3CC(O)(C(C)CC)C3)n2)cc1 (centres unmarked) [Compound I-6] | 48 | – | – | 0.024 | 0.77 |
| CCC(=O)Nc1ccc(Sc2nc(Nc3cc(C4CC4)[nH]n3)cc(N3CC(O)(C4CC4)C3)n2)cc1 [Compound I-7] | 23 | – | – | 0.022 | 0.36 |
| Cc1cc(Nc2cc(N3CC(O)(C4CC4)C3)nc(Sc3ccc(NC(=O)C4CC4)cc3)n2)n[nH]1 [Compound I-8] | 28 | 0.87 | 0.04 | 0.033 | – |
| Cc1cc(Nc2cc(N3CC(O)(C4CC4)C3)nc(Sc3ccc(NC(=O)C4CCCC4)cc3)n2)[nH]n1 [Compound I-9, N-(4-((4-(3-methyl-1H-pyrazol-5-ylamino)-6-(3-cyclopropyl-3-hydroxyazetidin-1-yl)pyrimidin-2-yl)sulfanyl)phenyl)cyclopentanecarboxamide] | 110 | 0.43 | – | 0.016 | – |
| O=C(Nc1ccc(Sc2nc(Nc3cc(C4CC4)[nH]n3)cc(N3CC(O)(C4CC4)C3)n2)cc1)C1CC1 [Compound I-10] | 2.5 | – | – | 0.042 | 0.42 |
| Cc1cc(Nc2cc(N3CC(O)(C4CC4)C3)nc(Sc3ccc(NC(=O)C4CC4)cc3F)n2)[nH]n1 [Compound I-11, N-(4-((4-(3-methyl-1H-pyrazol-5-ylamino)-6-(3-cyclopropyl-3-hydroxyazetidin-1-yl)pyrimidin-2-yl)sulfanyl)-3-fluorophenyl)cyclopropanecarboxamide] | 20 | 0.41 | – | 0.028 | – |
| Cc1cc(Nc2cc(N3CC(O)(C4CC4)C3)nc(Sc3ccc(NC(=O)C4CC4(F)F)cc3)n2)[nH]n1 (centres unmarked) [Compound I-12] | 15 | 0.35 | 0.019 | – | – |
| Cc1cc(Nc2cc(N3CC(F)(C4CC4)C3)nc(Sc3ccc(NC(=O)C4CC4)cc3)n2)n[nH]1 [Compound I-13] | 43 | 1.1 | 0.072 | 0.039 | – |
| Cc1cc(Nc2cc(N3CC(F)(C4CC4)C3)nc(Sc3ccc(NC(=O)CC(F)(F)F)cc3)n2)[nH]n1 [Compound I-14, N-(4-(4-(3-methyl-1H-pyrazol-5-ylamino)-6-(3-cyclopropyl-3-fluoroazetidin-1-yl)pyrimidin-2-ylthio)phenyl)-3,3,3-trifluoropropanamide] | 65 | 0.35 | 0.006 | 0.006 | – |
| Cc1cc(Nc2cc(N3CC(F)(C4CC4)C3)nc(Sc3ccc(NC(=O)C4CC4)cc3F)n2)n[nH]1 [Compound I-18] | 160 | – | 0.027 | – | 0.35 |
| Cc1cc(Nc2cc(N3CC(F)(C4CC4)C3)nc(Sc3ccc(NC(=O)CC4CC4)cc3)n2)[nH]n1 [Compound I-19] | 140 | – | 0.05 | – | 0.44 |
| Cc1cc(Nc2cc(N3CC(F)(C4CC4)C3)nc(Sc3ccc(NC(=O)C4CC4(F)F)cc3)n2)[nH]n1 (centres unmarked) [Compound I-20] | 72 | 0.77 | 0.012 | – | – |
| Cc1cc(Nc2cc(N3CC(F)(C4CC4)C3)nc(Sc3ccc(NC(=O)CC(F)(F)F)nc3)n2)[nH]n1 [Compound I-21, N-(5-(4-(3-methyl-1H-pyrazol-5-ylamino)-6-(3-cyclopropyl-3-fluoroazetidin-1-yl)pyrimidin-2-ylthio)pyridin-2-yl)-3,3,3-trifluoropropanamide] | 120 | – | 0.02 | – | 0.44 |
